From ChEMBL document CHEMBL1147101, “Development and persistence of antimicrobial resistance in Pseudomonas aeruginosa: a longitudinal observation in mechanically ventilated patients” (Antimicrob Agents Chemother, 2007)
Activity calls are given as the source filed them. The rule behind the calls is not given here.

What was measured:
Assay type in all cases: functional, organism-based
Conditions in all cases: Trachea
Pseudomonas aeruginosa [1] = test: Antimicrobial activity against Pseudomonas aeruginosa 65.38-3 tracheal isolates from mechanically ventilated tuberculosis patient
Pseudomonas aeruginosa [2] = test: Antimicrobial activity against Pseudomonas aeruginosa 1A9 tracheal isolates from mechanically ventilated tuberculosis patient
Pseudomonas aeruginosa [3] = test: Antimicrobial activity against Pseudomonas aeruginosa 1B9 tracheal isolates from mechanically ventilated tuberculosis patient
Pseudomonas aeruginosa [4] = test: Antimicrobial activity against Pseudomonas aeruginosa 2C1 tracheal isolates from mechanically ventilated tuberculosis patient
Pseudomonas aeruginosa [5] = test: Antimicrobial activity against Pseudomonas aeruginosa 2A2 tracheal isolates from mechanically ventilated tuberculosis patient
Pseudomonas aeruginosa [6] = test: Antimicrobial activity against Pseudomonas aeruginosa 2C2 tracheal isolates from mechanically ventilated tuberculosis patient
Pseudomonas aeruginosa [7] = test: Antimicrobial activity against Pseudomonas aeruginosa 2A3 tracheal isolates from mechanically ventilated tuberculosis patient
Pseudomonas aeruginosa [8] = test: Antimicrobial activity against Pseudomonas aeruginosa 2A5 tracheal isolates from mechanically ventilated tuberculosis patient
Pseudomonas aeruginosa [9] = test: Antimicrobial activity against Pseudomonas aeruginosa 2B5 tracheal isolates from mechanically ventilated tuberculosis patient
Pseudomonas aeruginosa [10] = test: Antimicrobial activity against Pseudomonas aeruginosa 2A6 tracheal isolates from mechanically ventilated tuberculosis patient
Pseudomonas aeruginosa [11] = test: Antimicrobial activity against Pseudomonas aeruginosa 2F6 tracheal isolates from mechanically ventilated tuberculosis patient
Pseudomonas aeruginosa [12] = test: Antimicrobial activity against Pseudomonas aeruginosa 2A7 tracheal isolates from mechanically ventilated tuberculosis patient
Pseudomonas aeruginosa [13] = test: Antimicrobial activity against Pseudomonas aeruginosa 2A9 tracheal isolates from mechanically ventilated tuberculosis patient
Pseudomonas aeruginosa [14] = test: Antimicrobial activity against Pseudomonas aeruginosa 3B1 tracheal isolates from mechanically ventilated tuberculosis patient
Pseudomonas aeruginosa [15] = test: Antimicrobial activity against Pseudomonas aeruginosa 65.68-1 tracheal isolates from mechanically ventilated tuberculosis patient
Pseudomonas aeruginosa [16] = test: Antimicrobial activity against Pseudomonas aeruginosa 65.68-2 tracheal isolates from mechanically ventilated tuberculosis patient
Pseudomonas aeruginosa [17] = test: Antimicrobial activity against Pseudomonas aeruginosa 65.68-3 tracheal isolates from mechanically ventilated tuberculosis patient
Pseudomonas aeruginosa [18] = test: Antimicrobial activity against Pseudomonas aeruginosa 65.68-4 tracheal isolates from mechanically ventilated tuberculosis patient
Pseudomonas aeruginosa [19] = test: Antimicrobial activity against Pseudomonas aeruginosa P21.21 tracheal isolates from mechanically ventilated tuberculosis patient
Pseudomonas aeruginosa [20] = test: Antimicrobial activity against Pseudomonas aeruginosa 65.18-1 tracheal isolates from mechanically ventilated tuberculosis patient
Pseudomonas aeruginosa [21] = test: Antimicrobial activity against Pseudomonas aeruginosa 65.18-2 tracheal isolates from mechanically ventilated tuberculosis patient
Pseudomonas aeruginosa [22] = test: Antimicrobial activity against Pseudomonas aeruginosa 65.18-3 tracheal isolates from mechanically ventilated tuberculosis patient
Pseudomonas aeruginosa [23] = test: Antimicrobial activity against Pseudomonas aeruginosa 65.18-4 tracheal isolates from mechanically ventilated tuberculosis patient
Pseudomonas aeruginosa [24] = test: Antimicrobial activity against Pseudomonas aeruginosa P21.23 tracheal isolates from mechanically ventilated tuberculosis patient
Pseudomonas aeruginosa [25] = test: Antimicrobial activity against Pseudomonas aeruginosa IA5 tracheal isolates from mechanically ventilated tuberculosis patient
Pseudomonas aeruginosa [26] = test: Antimicrobial activity against Pseudomonas aeruginosa IC7 tracheal isolates from mechanically ventilated tuberculosis patient
Pseudomonas aeruginosa [27] = test: Antimicrobial activity against Pseudomonas aeruginosa 65.33-1 tracheal isolates from mechanically ventilated tuberculosis patient
Pseudomonas aeruginosa [28] = test: Antimicrobial activity against Pseudomonas aeruginosa 65.33-4 tracheal isolates from mechanically ventilated tuberculosis patient
Pseudomonas aeruginosa [29] = test: Antimicrobial activity against Pseudomonas aeruginosa 65.38-1 tracheal isolates from mechanically ventilated tuberculosis patient
Pseudomonas aeruginosa [30] = test: Antimicrobial activity against Pseudomonas aeruginosa 65.38-4 tracheal isolates from mechanically ventilated tuberculosis patient
Pseudomonas aeruginosa [31] = test: Antimicrobial activity against Pseudomonas aeruginosa 1C9 tracheal isolates from mechanically ventilated tuberculosis patient
Pseudomonas aeruginosa [32] = test: Antimicrobial activity against Pseudomonas aeruginosa 2A1 tracheal isolates from mechanically ventilated tuberculosis patient
Pseudomonas aeruginosa [33] = test: Antimicrobial activity against Pseudomonas aeruginosa 15H5 tracheal isolates from mechanically ventilated chronic respiratory insufficiency patient
Pseudomonas aeruginosa [34] = test: Antimicrobial activity against Pseudomonas aeruginosa 65.33-2 tracheal isolates from mechanically ventilated tuberculosis patient
Pseudomonas aeruginosa [35] = test: Antimicrobial activity against Pseudomonas aeruginosa 65.33-3 tracheal isolates from mechanically ventilated tuberculosis patient
Pseudomonas aeruginosa [36] = test: Antimicrobial activity against Pseudomonas aeruginosa 65.36-1 tracheal isolates from mechanically ventilated tuberculosis patient
Pseudomonas aeruginosa [37] = test: Antimicrobial activity against Pseudomonas aeruginosa 65.36-2 tracheal isolates from mechanically ventilated tuberculosis patient
Pseudomonas aeruginosa [38] = test: Antimicrobial activity against Pseudomonas aeruginosa 65.36-3 tracheal isolates from mechanically ventilated tuberculosis patient
Pseudomonas aeruginosa [39] = test: Antimicrobial activity against Pseudomonas aeruginosa 65.36-4 tracheal isolates from mechanically ventilated tuberculosis patient
Pseudomonas aeruginosa [40] = test: Antimicrobial activity against Pseudomonas aeruginosa 65.38-2 tracheal isolates from mechanically ventilated tuberculosis patient
Pseudomonas aeruginosa [41] = test: Antimicrobial activity against Pseudomonas aeruginosa ID7 tracheal isolates from mechanically ventilated tuberculosis patient

Structure (SMILES): C[C@H]1[C@H](NC(=O)/C(=N\OC(C)(C)C(=O)O)c2csc(N)n2)C(=O)N1S(=O)(=O)O
- Activity (Pseudomonas aeruginosa [1]): inactive
- Activity (Pseudomonas aeruginosa [2]): inactive
- Activity (Pseudomonas aeruginosa [3]): inactive
- Activity (Pseudomonas aeruginosa [4]): inactive
- Activity (Pseudomonas aeruginosa [5]): Active
- Activity (Pseudomonas aeruginosa [6]): Active
- Activity (Pseudomonas aeruginosa [7]): Active
- Activity (Pseudomonas aeruginosa [8]): Active
- Activity (Pseudomonas aeruginosa [9]): Active
- Activity (Pseudomonas aeruginosa [10]): inactive
- Activity (Pseudomonas aeruginosa [11]): inactive
- Activity (Pseudomonas aeruginosa [12]): inactive
- Activity (Pseudomonas aeruginosa [13]): inactive
- Activity (Pseudomonas aeruginosa [14]): Active
- Activity (Pseudomonas aeruginosa [15]): Active
- Activity (Pseudomonas aeruginosa [16]): Active
- Activity (Pseudomonas aeruginosa [17]): Active
- Activity (Pseudomonas aeruginosa [18]): Active
- Activity (Pseudomonas aeruginosa [19]): Active
- Activity (Pseudomonas aeruginosa [20]): Active
- Activity (Pseudomonas aeruginosa [21]): Active
- Activity (Pseudomonas aeruginosa [22]): Active
- Activity (Pseudomonas aeruginosa [23]): Active
- Activity (Pseudomonas aeruginosa [24]): Active
- Activity (Pseudomonas aeruginosa [25]): Active
- Activity (Pseudomonas aeruginosa [26]): Active
- Activity (Pseudomonas aeruginosa [27]): Active
- Activity (Pseudomonas aeruginosa [28]): Active
- Activity (Pseudomonas aeruginosa [29]): inactive

Structure (SMILES): NC[C@H]1O[C@H](O[C@H]2[C@H](O)[C@@H](O[C@H]3O[C@H](CO)[C@@H](O)[C@H](N)[C@H]3O)[C@H](N)C[C@@H]2N)[C@H](N)C[C@@H]1O
- Activity (Pseudomonas aeruginosa [1]): Active
- Activity (Pseudomonas aeruginosa [30]): Active
- Activity (Pseudomonas aeruginosa [2]): Active
- Activity (Pseudomonas aeruginosa [31]): Active
- Activity (Pseudomonas aeruginosa [32]): Active
- Activity (Pseudomonas aeruginosa [4]): Active
- Activity (Pseudomonas aeruginosa [5]): Active
- Activity (Pseudomonas aeruginosa [6]): Active
- Activity (Pseudomonas aeruginosa [7]): Active
- Activity (Pseudomonas aeruginosa [8]): Active
- Activity (Pseudomonas aeruginosa [9]): Active
- Activity (Pseudomonas aeruginosa [10]): Active
- Activity (Pseudomonas aeruginosa [11]): Active
- Activity (Pseudomonas aeruginosa [12]): Active
- Activity (Pseudomonas aeruginosa [13]): Active
- Activity (Pseudomonas aeruginosa [14]): Active
- Activity (Pseudomonas aeruginosa [15]): Active
- Activity (Pseudomonas aeruginosa [16]): Active
- Activity (Pseudomonas aeruginosa [17]): Active
- Activity (Pseudomonas aeruginosa [18]): Active
- Activity (Pseudomonas aeruginosa [33]): Active
- Activity (Pseudomonas aeruginosa [19]): Active
- Activity (Pseudomonas aeruginosa [20]): Active
- Activity (Pseudomonas aeruginosa [21]): Active
- Activity (Pseudomonas aeruginosa [22]): Active
- Activity (Pseudomonas aeruginosa [23]): Active
- Activity (Pseudomonas aeruginosa [24]): Active
- Activity (Pseudomonas aeruginosa [25]): Active
- Activity (Pseudomonas aeruginosa [26]): Active
- Activity (Pseudomonas aeruginosa [27]): Active
- Activity (Pseudomonas aeruginosa [34]): Active
- Activity (Pseudomonas aeruginosa [35]): Active
- Activity (Pseudomonas aeruginosa [28]): Active
- Activity (Pseudomonas aeruginosa [36]): Active
- Activity (Pseudomonas aeruginosa [37]): Active
- Activity (Pseudomonas aeruginosa [38]): Active
- Activity (Pseudomonas aeruginosa [39]): Active
- Activity (Pseudomonas aeruginosa [40]): Active

Structure (SMILES): CCN1CCN(C(=O)N[C@@H](C(=O)N[C@@H]2C(=O)N3[C@@H]2SC(C)(C)[C@@H]3C(=O)O)c2ccccc2)C(=O)C1=O
- Activity (Pseudomonas aeruginosa [1]): inactive
- Activity (Pseudomonas aeruginosa [30]): Active
- Activity (Pseudomonas aeruginosa [2]): inactive
- Activity (Pseudomonas aeruginosa [3]): inactive
- Activity (Pseudomonas aeruginosa [32]): inactive
- Activity (Pseudomonas aeruginosa [4]): inactive
- Activity (Pseudomonas aeruginosa [5]): Active
- Activity (Pseudomonas aeruginosa [6]): Active
- Activity (Pseudomonas aeruginosa [7]): Active
- Activity (Pseudomonas aeruginosa [8]): Active
- Activity (Pseudomonas aeruginosa [9]): Active
- Activity (Pseudomonas aeruginosa [10]): inactive
- Activity (Pseudomonas aeruginosa [11]): inactive
- Activity (Pseudomonas aeruginosa [12]): inactive
- Activity (Pseudomonas aeruginosa [13]): inactive
- Activity (Pseudomonas aeruginosa [14]): Active
- Activity (Pseudomonas aeruginosa [15]): Active
- Activity (Pseudomonas aeruginosa [16]): Active
- Activity (Pseudomonas aeruginosa [17]): Active
- Activity (Pseudomonas aeruginosa [18]): Active
- Activity (Pseudomonas aeruginosa [19]): Active
- Activity (Pseudomonas aeruginosa [20]): Active
- Activity (Pseudomonas aeruginosa [21]): Active
- Activity (Pseudomonas aeruginosa [22]): Active
- Activity (Pseudomonas aeruginosa [23]): Active
- Activity (Pseudomonas aeruginosa [24]): Active
- Activity (Pseudomonas aeruginosa [25]): Active
- Activity (Pseudomonas aeruginosa [26]): Active
- Activity (Pseudomonas aeruginosa [41]): Active
- Activity (Pseudomonas aeruginosa [27]): Active
- Activity (Pseudomonas aeruginosa [34]): Active
- Activity (Pseudomonas aeruginosa [35]): inactive
- Activity (Pseudomonas aeruginosa [28]): Active
- Activity (Pseudomonas aeruginosa [36]): Active
- Activity (Pseudomonas aeruginosa [37]): Active
- Activity (Pseudomonas aeruginosa [38]): Active
- Activity (Pseudomonas aeruginosa [39]): inactive
- Activity (Pseudomonas aeruginosa [29]): inactive
- Activity (Pseudomonas aeruginosa [40]): inactive

Structure (SMILES): CCN[C@@H]1C[C@H](N)[C@@H](O[C@H]2OC(CN)=CC[C@H]2N)[C@H](O)[C@H]1O[C@H]1OC[C@](C)(O)[C@H](NC)[C@H]1O
- Activity (Pseudomonas aeruginosa [1]): inactive
- Activity (Pseudomonas aeruginosa [30]): inactive
- Activity (Pseudomonas aeruginosa [2]): Active
- Activity (Pseudomonas aeruginosa [3]): inactive
- Activity (Pseudomonas aeruginosa [32]): Active
- Activity (Pseudomonas aeruginosa [4]): inactive
- Activity (Pseudomonas aeruginosa [5]): Active
- Activity (Pseudomonas aeruginosa [6]): Active
- Activity (Pseudomonas aeruginosa [7]): Active
- Activity (Pseudomonas aeruginosa [8]): Active
- Activity (Pseudomonas aeruginosa [11]): inactive
- Activity (Pseudomonas aeruginosa [12]): inactive
- Activity (Pseudomonas aeruginosa [13]): inactive
- Activity (Pseudomonas aeruginosa [14]): Active
- Activity (Pseudomonas aeruginosa [15]): Active
- Activity (Pseudomonas aeruginosa [16]): inactive
- Activity (Pseudomonas aeruginosa [19]): Active
- Activity (Pseudomonas aeruginosa [21]): Active
- Activity (Pseudomonas aeruginosa [22]): Active
- Activity (Pseudomonas aeruginosa [23]): Active
- Activity (Pseudomonas aeruginosa [24]): Active
- Activity (Pseudomonas aeruginosa [25]): Active
- Activity (Pseudomonas aeruginosa [26]): Active
- Activity (Pseudomonas aeruginosa [27]): Active
- Activity (Pseudomonas aeruginosa [39]): inactive
- Activity (Pseudomonas aeruginosa [29]): inactive
- Activity (Pseudomonas aeruginosa [40]): inactive

Structure (SMILES): C[C@@H](O)[C@H]1C(=O)N2C(C(=O)O)=C(S[C@@H]3CN[C@H](C(=O)N(C)C)C3)[C@H](C)[C@H]12
- Activity (Pseudomonas aeruginosa [1]): inactive
- Activity (Pseudomonas aeruginosa [30]): inactive
- Activity (Pseudomonas aeruginosa [2]): inactive
- Activity (Pseudomonas aeruginosa [3]): inactive
- Activity (Pseudomonas aeruginosa [32]): inactive
- Activity (Pseudomonas aeruginosa [4]): inactive
- Activity (Pseudomonas aeruginosa [5]): inactive
- Activity (Pseudomonas aeruginosa [7]): Active
- Activity (Pseudomonas aeruginosa [8]): Active
- Activity (Pseudomonas aeruginosa [10]): inactive
- Activity (Pseudomonas aeruginosa [11]): inactive
- Activity (Pseudomonas aeruginosa [12]): inactive
- Activity (Pseudomonas aeruginosa [13]): inactive
- Activity (Pseudomonas aeruginosa [14]): Active
- Activity (Pseudomonas aeruginosa [15]): inactive
- Activity (Pseudomonas aeruginosa [16]): inactive
- Activity (Pseudomonas aeruginosa [17]): inactive
- Activity (Pseudomonas aeruginosa [18]): inactive
- Activity (Pseudomonas aeruginosa [19]): Active
- Activity (Pseudomonas aeruginosa [20]): Active
- Activity (Pseudomonas aeruginosa [22]): Active
- Activity (Pseudomonas aeruginosa [24]): Active
- Activity (Pseudomonas aeruginosa [25]): Active
- Activity (Pseudomonas aeruginosa [26]): Active
- Activity (Pseudomonas aeruginosa [34]): inactive
- Activity (Pseudomonas aeruginosa [35]): inactive
- Activity (Pseudomonas aeruginosa [38]): inactive
- Activity (Pseudomonas aeruginosa [39]): inactive
- Activity (Pseudomonas aeruginosa [29]): inactive
- Activity (Pseudomonas aeruginosa [40]): inactive
